According to patent publication US20150217046A1, “DOSING REGIMENS FOR SUBCUTANEOUSLY INFUSIBLE ACIDIC COMPOSITIONS” (SynAgile Corporation, priority 2012, published 2015):
Like-named read-outs stand apart in the source and are kept apart here.

How the values were obtained:
[1] = Swelling/induration and histopathology after continuous subcutaneous infusion (Example 1); type: in vivo, Yucatan minipigs; settings: for microscopic changes at infused site: pH 4.6
Text: The pharmaceutical compositions were citrate buffered at pH 4.6 where most, but not all, of the LDEE is in the salt form, i.e., there is also some free base.

[2] = Infusion site reactions, intermittent subcutaneous infusion of 100 and 200 mg/mL LDEE pH 3.7 (Example 4); settings: for infusion site reactions, doses pooled: 14 days post-infusion
Text: Each infusion site was spaced a minimum of 2 inches (5 cm) apart from any other infusion site.

[3] = minipig A day 1: 90 mg LDEE (100 mg/mL, pH 3.7) s.c. continuous over 8 h, oral Lodosyn
[4] = minipig A day 8: 90 mg LDEE (100 mg/mL, pH 3.7) re-infused at contralateral site over 8 h, pre-infused with 15 units human hyaluronidase
[5] = minipig B day 1: 90 mg LDEE (100 mg/mL, pH 3.7) s.c. continuous over 8 h, oral Lodosyn
[6] = minipig C day 1: 560 mg LDEE (100 mg/mL, pH 3.7) split between 2 sites, s.c. continuous over 8 h, oral Lodosyn
[7] = minipig C day 8: 280 mg LDEE (100 mg/mL, pH 3.7) re-infused at one site, s.c. continuous over 8 h
[8] = minipig D day 1: 560 mg LDEE (100 mg/mL, pH 3.7) split between 2 sites, s.c. continuous over 8 h, oral Lodosyn
[9] = minipig D day 8: 560 mg LDEE (100 mg/mL, pH 3.7) re-infused at the 2 day 1 sites, s.c. continuous over 8 h
[10] = minipig E day 1: 560 mg LDEE (100 mg/mL, pH 3.7) split between 2 sites, s.c. continuous over 8 h, pre-infused with 15 units human hyaluronidase
[11] = minipig F day 1: 560 mg LDEE (100 mg/mL, pH 3.7) split between 2 sites, s.c. continuous over 8 h, pre-infused with 15 units human hyaluronidase
[12] = minipig F day 8: 560 mg LDEE (100 mg/mL, pH 3.7) re-infused at 2 sites over 8 h, pre-infused with 15 units human hyaluronidase

CCOC(=O)[C@@H](N)Cc1ccc(O)c(O)c1 [LDEE, levodopa ethyl ester]
Plasma LD, 480 minutes after start of infusion (Average of the 10 minipig/day infusions of Table 10): 7,870 ng/mL
Plasma LD, 480 minutes after start of infusion (minipig A day 1: 90 mg LDEE (100 mg/mL, pH 3.7) s.c. continuous over 8 h): 1,051 ng/mL
40 minutes Post-Infusion plasma LD [3]: 1,093 ng/mL
End of Infusion Plasma LD [3]: 1,051 ng/mL
40 minutes Post-Infusion plasma LD [4]: 691 ng/mL
100 minutes Post-Infusion plasma LD [4]: 342 ng/mL
170 minutes Post-Infusion plasma LD [4]: 185 ng/mL
End of Infusion Plasma LD [4]: 679 ng/mL
Plasma LD, 480 minutes after start of infusion (minipig A day 8: 90 mg LDEE (100 mg/mL, pH 3.7), contralateral site, 8 h, hyaluronidase pre-infusion): 679 ng/mL
Plasma LD, 480 minutes after start of infusion (minipig B day 1: 90 mg LDEE (100 mg/mL, pH 3.7) s.c. continuous over 8 h): 1,351 ng/mL
40 minutes Post-Infusion plasma LD [5]: 1,010 ng/mL
100 minutes Post-Infusion plasma LD [5]: 686 ng/mL
170 minutes Post-Infusion plasma LD [5]: 376 ng/mL
End of Infusion Plasma LD [5]: 1,351 ng/mL
Plasma LD, 480 minutes after start of infusion (minipig C day 1: 560 mg LDEE (100 mg/mL, pH 3.7) split between 2 sites, s.c. continuous over 8 h): 11,377 ng/mL
40 minutes Post-Infusion plasma LD [6]: 11,006 ng/mL
100 minutes Post-Infusion plasma LD [6]: 6,010 ng/mL
170 minutes Post-Infusion plasma LD [6]: 5,754 ng/mL
End of Infusion Plasma LD [6]: 11,377 ng/mL
Plasma LD, 480 minutes after start of infusion (minipig C day 8: 280 mg LDEE (100 mg/mL, pH 3.7) at one site, 8 h): 4739 ng/mL
40 minutes Post-Infusion plasma LD [7]: 4551 ng/mL
100 minutes Post-Infusion plasma LD [7]: 3357 ng/mL
170 minutes Post-Infusion plasma LD [7]: 2306 ng/mL
End of Infusion Plasma LD [7]: 4739 ng/mL
Plasma LD, 480 minutes after start of infusion (minipig D day 1: 560 mg LDEE (100 mg/mL, pH 3.7) split between 2 sites, s.c. continuous over 8 h): 15,356 ng/mL
40 minutes Post-Infusion plasma LD [8]: 17,055 ng/mL
100 minutes Post-Infusion plasma LD [8]: 9,790 ng/mL
170 minutes Post-Infusion plasma LD [8]: 6,942 ng/mL
End of Infusion Plasma LD [8]: 15,356 ng/mL
Plasma LD, 480 minutes after start of infusion (minipig D day 8: 560 mg LDEE (100 mg/mL, pH 3.7) re-infused at the 2 day 1 sites, 8 h): 8075 ng/mL
40 minutes Post-Infusion plasma LD [9]: 8350 ng/mL
100 minutes Post-Infusion plasma LD [9]: 5928 ng/mL
170 minutes Post-Infusion plasma LD [9]: 4219 ng/mL
End of Infusion Plasma LD [9]: 8075 ng/mL
increase in plasma LD concentration 40 minutes after cessation of infusion (minipig D, Day 1 infusion): 1,699 ng/mL
40 minutes Post-Infusion plasma LD [10]: 11,918 ng/mL
100 minutes Post-Infusion plasma LD [10]: 5,464 ng/mL
170 minutes Post-Infusion plasma LD [10]: 7,329 ng/mL
End of Infusion Plasma LD [10]: 14,212 ng/mL
Plasma LD, 480 minutes after start of infusion (minipig E day 1: 560 mg LDEE (100 mg/mL, pH 3.7), 2 sites, 8 h, hyaluronidase pre-infusion): 14,212 ng/mL
40 minutes Post-Infusion plasma LD [11]: 12,310 ng/mL
100 minutes Post-Infusion plasma LD [11]: 3,046 ng/mL
170 minutes Post-Infusion plasma LD [11]: 5,903 ng/mL
End of Infusion Plasma LD [11]: 12,982 ng/mL
Plasma LD, 480 minutes after start of infusion (minipig F day 1: 560 mg LDEE (100 mg/mL, pH 3.7), 2 sites, 8 h, hyaluronidase pre-infusion): 12,982 ng/mL
40 minutes Post-Infusion plasma LD [12]: 8223 ng/mL
100 minutes Post-Infusion plasma LD [12]: 6231 ng/mL
170 minutes Post-Infusion plasma LD [12]: 3650 ng/mL
End of Infusion Plasma LD [12]: 8880 ng/mL
Plasma LD, 480 minutes after start of infusion (minipig F day 8: 560 mg LDEE (100 mg/mL, pH 3.7), 2 sites, 8 h, hyaluronidase pre-infusion): 8880 ng/mL
swelling/induration of infused sites ([1]; 1,142 mg LDEE over 16 hours continuous s.c., 326 mg/mL and 220 mg/mL, citrate buffered pH 4.6): Most, but not all, of the infused sites were swollen and/or developed firm indurations
microscopic changes at infused site ([1]; one month after infusion of 328 mg LDEE/mL (1.45 M)): mild to moderate granulomatous inflammation of the panniculus
microscopic changes at infused site ([1]; one week after infusion of 220 mg LDEE per mL (0.98 M)): mild thrombus formation in the blood vessels of the panniculus, with minimal hemorrhage and subacute inflammation
microscopic changes at infused site ([1]; three weeks after infusion of 220 mg LDEE per mL (0.98 M), minipig A): minimal hemorrhage of the dermis and panniculus
microscopic changes at infused site ([1]; three weeks after infusion of 220 mg LDEE per mL (0.98 M), minipig B): mild granulomatous inflammation
infusion site reactions, doses pooled ([2]; 100 mg/mL LDEE pH 3.7): 0 out of 16
infusion site reactions, doses pooled ([2]; 200 mg/mL LDEE pH 3.7): 5 out of 16
tolerability of infused volume per site ([2]; LDEE pH 3.7, volumes between 0.094 and 0.37 mL per hour per site): well tolerated
# of Infusion Site Reactions/# of Infusion Sites ([2]; pH 3.7, intermittent s.c. (35 min non-delivery), 100 mg/mL, 563 mg, 16 hrs, 0 hrs): 0/4
# of Infusion Site Reactions/# of Infusion Sites ([2]; pH 3.7, intermittent s.c. (35 min non-delivery), 100 mg/mL, 563 mg, 16 hrs, 12 hrs): 0/4
# of Infusion Site Reactions/# of Infusion Sites ([2]; pH 3.7, intermittent s.c. (35 min non-delivery), 100 mg/mL, 563 mg, 16 hrs, 24 hrs): 2/4
# of Infusion Site Reactions/# of Infusion Sites ([2]; pH 3.7, intermittent s.c. (35 min non-delivery), 100 mg/mL, 563 mg, 16 hrs, 3 days): 3/4
# of Infusion Site Reactions/# of Infusion Sites ([2]; pH 3.7, intermittent s.c. (35 min non-delivery), 100 mg/mL, 563 mg, 16 hrs, 7 days): 3/4
# of Infusion Site Reactions/# of Infusion Sites ([2]; pH 3.7, intermittent s.c. (35 min non-delivery), 100 mg/mL, 563 mg, 16 hrs, 14 days): 0/4
# of Infusion Site Reactions/# of Infusion Sites ([2]; pH 3.7, intermittent s.c., 100 mg/mL, 140 mg, 8 hrs, 0 hrs): 0/8
# of Infusion Site Reactions/# of Infusion Sites ([2]; pH 3.7, intermittent s.c., 100 mg/mL, 140 mg, 8 hrs, 12 hrs): 0/8
# of Infusion Site Reactions/# of Infusion Sites ([2]; pH 3.7, intermittent s.c., 100 mg/mL, 140 mg, 8 hrs, 24 hrs): 0/8
# of Infusion Site Reactions/# of Infusion Sites ([2]; pH 3.7, intermittent s.c., 100 mg/mL, 140 mg, 8 hrs, 3 days): 3/8
# of Infusion Site Reactions/# of Infusion Sites ([2]; pH 3.7, intermittent s.c., 100 mg/mL, 140 mg, 8 hrs, 7 days): 1/8
# of Infusion Site Reactions/# of Infusion Sites ([2]; pH 3.7, intermittent s.c., 100 mg/mL, 140 mg, 8 hrs, 14 days): 0/8
# of Infusion Site Reactions/# of Infusion Sites ([2]; pH 3.7, intermittent s.c., 100 mg/mL, 282 mg, 16 hrs, 0 hrs): 0/4
# of Infusion Site Reactions/# of Infusion Sites ([2]; pH 3.7, intermittent s.c., 100 mg/mL, 282 mg, 16 hrs, 12 hrs): 0/4
# of Infusion Site Reactions/# of Infusion Sites ([2]; pH 3.7, intermittent s.c., 100 mg/mL, 282 mg, 16 hrs, 24 hrs): 1/4
# of Infusion Site Reactions/# of Infusion Sites ([2]; pH 3.7, intermittent s.c., 100 mg/mL, 282 mg, 16 hrs, 3 days): 1/4
# of Infusion Site Reactions/# of Infusion Sites ([2]; pH 3.7, intermittent s.c., 100 mg/mL, 282 mg, 16 hrs, 7 days): 0/4
# of Infusion Site Reactions/# of Infusion Sites ([2]; pH 3.7, intermittent s.c., 100 mg/mL, 282 mg, 16 hrs, 14 days): 0/4
# of Infusion Site Reactions/# of Infusion Sites ([2]; pH 3.7, intermittent s.c., 200 mg/mL, 140 mg, 8 hrs, 0 hrs): 0/8
# of Infusion Site Reactions/# of Infusion Sites ([2]; pH 3.7, intermittent s.c., 200 mg/mL, 140 mg, 8 hrs, 12 hrs): 0/8
# of Infusion Site Reactions/# of Infusion Sites ([2]; pH 3.7, intermittent s.c., 200 mg/mL, 140 mg, 8 hrs, 24 hrs): 0/8
# of Infusion Site Reactions/# of Infusion Sites ([2]; pH 3.7, intermittent s.c., 200 mg/mL, 140 mg, 8 hrs, 3 days): 3/8
# of Infusion Site Reactions/# of Infusion Sites ([2]; pH 3.7, intermittent s.c., 200 mg/mL, 140 mg, 8 hrs, 7 days): 3/8
# of Infusion Site Reactions/# of Infusion Sites ([2]; pH 3.7, intermittent s.c., 200 mg/mL, 140 mg, 8 hrs, 14 days): 2/8
# of Infusion Site Reactions/# of Infusion Sites ([2]; pH 3.7, intermittent s.c., 200 mg/mL, 282 mg, 16 hrs, 0 hrs): 0/4
# of Infusion Site Reactions/# of Infusion Sites ([2]; pH 3.7, intermittent s.c., 200 mg/mL, 282 mg, 16 hrs, 12 hrs): 0/4
# of Infusion Site Reactions/# of Infusion Sites ([2]; pH 3.7, intermittent s.c., 200 mg/mL, 282 mg, 16 hrs, 24 hrs): 0/4
# of Infusion Site Reactions/# of Infusion Sites ([2]; pH 3.7, intermittent s.c., 200 mg/mL, 282 mg, 16 hrs, 3 days): 2/4
# of Infusion Site Reactions/# of Infusion Sites ([2]; pH 3.7, intermittent s.c., 200 mg/mL, 282 mg, 16 hrs, 7 days): 2/4
# of Infusion Site Reactions/# of Infusion Sites ([2]; pH 3.7, intermittent s.c., 200 mg/mL, 282 mg, 16 hrs, 14 days): 1/4
# of Infusion Site Reactions/# of Infusion Sites ([2]; pH 3.7, intermittent s.c., 200 mg/mL, 563 mg, 16 hrs, 0 hrs): 0/4
# of Infusion Site Reactions/# of Infusion Sites ([2]; pH 3.7, intermittent s.c., 200 mg/mL, 563 mg, 16 hrs, 12 hrs): 0/4
# of Infusion Site Reactions/# of Infusion Sites ([2]; pH 3.7, intermittent s.c., 200 mg/mL, 563 mg, 16 hrs, 24 hrs): 0/4
# of Infusion Site Reactions/# of Infusion Sites ([2]; pH 3.7, intermittent s.c., 200 mg/mL, 563 mg, 16 hrs, 3 days): 3/4
# of Infusion Site Reactions/# of Infusion Sites ([2]; pH 3.7, intermittent s.c., 200 mg/mL, 563 mg, 16 hrs, 7 days): 3/4
# of Infusion Site Reactions/# of Infusion Sites ([2]; pH 3.7, intermittent s.c., 200 mg/mL, 563 mg, 16 hrs, 14 days): 2/4
